Source: the supplement of paper PMC4862054
Several values for one entry are separate records, joined by “and”; a condition that tells them apart may be missing. Equal entries are not always repeated.

Legend:
Settings in all cases: incubation time: 72 h
CAL-51 [1] = assay: normalised response (% of control), CellTiter-Glo; higher = more viable cells (100 = DMSO, 0 = benzethonium chloride kill control)
In short: (§1)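 A 20 µl suspension of breast cancer cells was seeded into each well of 384-well plates containing compound at 5 concentrations in 10-fold steps over a compound-specific 10,000-fold range. After 72 h incubation, CellTox Green fluorescence (485/520 nm) was read first, and CellTiter-Glo luminescence was read after 10 min at room temperature. Each plate was normalised against 0.1 % DMSO (100) and a positive kill control (0), and each value is the normalised signal at one concentration.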

MDA-MB-468 [2] = assay: as above
In short: as §1

MCF-10A = assay: as above
In short: as §1

MDA-MB-231 [3] = assay: as above
In short: as §1

MDA-MB-436 = assay: as above
In short: as §1

CAL-120 [4] = assay: as above
In short: as §1

HCC1143 [5] = assay: as above
In short: as §1

BT-474 = assay: as above
In short: as §1

HDQ-P1 [6] = assay: as above
In short: as §1

CAL-85-1 [7] = assay: as above
In short: as §1

MDA-MB-453 [8] = assay: as above
In short: as §1

Hs578T [9] = assay: as above
In short: as §1

MFM-223 [10] = assay: as above
In short: as §1

SK-BR-3 [11] = assay: as above
In short: as §1

HCC1937 [12] = assay: as above
In short: as §1

HCC1599 [13] = assay: as above
In short: as §1

DU-4475 [14] = assay: as above
In short: as §1

CAL-148 [15] = assay: as above
In short: as §1

BT-549 = assay: as above
In short: as §1

CAL-51 [16] = assay: normalised viability (% of control), CellTiter-Blue; higher = more viable cells (100 = DMSO, 0 = benzethonium chloride kill control)
Method: (§2)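 DSRT, CellTiter-Blue viability, 72 h incubation. Signal is normalised to DMSO and benzethonium chloride controls. Value is the normalised response at dose 1.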

MDA-MB-468 [17] = assay: as above
Method: as §2

MDA-MB-231 [18] = assay: as above
Method: as §2

CAL-120 [19] = assay: as above
Method: as §2

HCC1143 [20] = assay: as above
Method: as §2

HDQ-P1 [21] = assay: as above
Method: as §2

CAL-85-1 [22] = assay: as above
Method: as §2

MDA-MB-453 [23] = assay: as above
Method: as §2

Hs578T [24] = assay: as above
Method: as §2

MFM-223 [25] = assay: as above
Method: as §2

SK-BR-3 [26] = assay: as above
Method: as §2

HCC1937 [27] = assay: as above
Method: as §2

HCC1599 [28] = assay: as above
Method: as §2

DU-4475 [29] = assay: as above
Method: as §2

CAL-148 [30] = assay: as above
Method: as §2

`CCCCCOC(=O)Nc1nc(=O)n([C@@H]2O[C@H](C)[C@@H](O)[C@H]2O)cc1F` [Capecitabine] (1 nM) showed a normalised response (CAL-51 [1]) of 67.8%, a normalised response (MDA-MB-468 [2]) of 103% and a normalised response (MCF-10A) of 94.5%. It also gave a normalised response (MDA-MB-231 [3]) of 102%, a normalised response (MDA-MB-436) of 88.7% and a normalised response (CAL-120 [4]) of 94.6%. The normalised response (HCC1143 [5]) was 96.8%, the normalised response (BT-474) was 95.2% and the normalised response (HDQ-P1 [6]) was 102%. The normalised response (CAL-85-1 [7]) was 96.8%, the normalised response (MDA-MB-453 [8]) was 113% and the normalised response (Hs578T [9]) was 102%. The normalised response (MFM-223 [10]) was 98.2%, the normalised response (SK-BR-3 [11]) was 110% and the normalised response (HCC1937 [12]) was 98.2%. The normalised response (HCC1599 [13]) was 95.5%, the normalised response (DU-4475 [14]) was 99.7% and the normalised response (CAL-148 [15]) was 106%. The normalised response (BT-549) was 107%, the normalised viability (CAL-51 [16]) was 106% and 99.2% and the normalised viability (MDA-MB-468 [17]) was 106% and 115%. For the same compound, the normalised viability (MDA-MB-231 [18]) was 94.7% and 83.7%, the normalised viability (CAL-120 [19]) was 85.3% and 96.5% and the normalised viability (HCC1143 [20]) was 93.5% and 107%. The normalised viability (HDQ-P1 [21]) was 85.1% and 91.7%, the normalised viability (CAL-85-1 [22]) was 86.7% and 109% and the normalised viability (MDA-MB-453 [23]) was 102% and 97.9%. For the same compound, the normalised viability (Hs578T [24]) was 105% and 96.7%, the normalised viability (MFM-223 [25]) was 88.8% and 95.7% and the normalised viability (SK-BR-3 [26]) was 117% and 92.1%. The normalised viability (HCC1937 [27]) was 84.3% and 85%, the normalised viability (HCC1599 [28]) was 88.8% and 111% and the normalised viability (DU-4475 [29]) was 108% and 102%. For the same compound, the normalised viability (CAL-148 [30]) was 106% and 102%.
